Values quoted from earlier work, collected in patent US20040197429A1, “Selective COX-2 inhibition from plant extracts” (Pharmacia Corporation, priority 2000, published 2004).

System: COX-1 and COX-2
Conditions: background

## CC(=O)Oc1ccccc1C(=O)O [aspirin]
  effectiveness inactivating COX-1 as opposed to COX-2: 10 to 100 times
